PMC8471300, “A Computational Workflow for the Identification of Novel Fragments Acting as Inhibitors of the Activity of Protein Kinase CK1δ” (International Journal of Molecular Sciences, 2021)
pIC50, pKi: −log10 of the molar value. Like-named read-outs stand apart in the source and are kept apart here.

What was measured:
CK1δ (aa 1-294) = target: T1, CK1δ (aa 1-294) (Homo sapiens, UniProt P48730); assay: CK1δ KinaseGlo luminescence enzymatic assay; type: biochemical; conditions: for remaining activity at 40 µM: ligand at 40 μM, mean of two independent experiments in duplicate, read-out: % CK1δ residual activity - fixed dose 40 μM; for pIC50: mean of three independent experiments, 95% confidence limits in brackets, 4 μM ATP, 0.1% casein
T1 construct: Compounds were evaluated towards CK1δ (aa 1-294, Merck Millipore); purchased Merck Millipore
T1 sequence (P48730 1-294): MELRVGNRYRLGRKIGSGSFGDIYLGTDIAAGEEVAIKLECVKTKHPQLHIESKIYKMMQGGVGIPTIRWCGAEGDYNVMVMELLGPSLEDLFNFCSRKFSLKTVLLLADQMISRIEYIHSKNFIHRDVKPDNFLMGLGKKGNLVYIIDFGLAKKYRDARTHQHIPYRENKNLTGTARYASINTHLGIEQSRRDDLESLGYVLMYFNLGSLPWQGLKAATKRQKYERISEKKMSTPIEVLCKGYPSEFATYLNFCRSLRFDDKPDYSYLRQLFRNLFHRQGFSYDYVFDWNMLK
Method: Fragments were tested against CK1δ using a luminescent-based assay.
Compounds were evaluated towards CK1δ (aa 1-294, Merck Millipore, Frankfurter Strasse 250, Darmstadt, 64293, Germany) with the KinaseGlo® luminescence assay (Promega Corporation, 2800 Woods Hollow Road Madison, WI 53711, USA) following procedures reported in the literature. In detail, luminescent assays were performed in white 96-well plates, using the following buffer: 50 mM HEPES (pH 7.5),1 mM EDTA, 1 mM EGTA, and 15 mM MgCl2. […] In a typical assay, 10 μL of inhibitor solution (dissolved in DMSO at 10 mM concentration and diluted in assay buffer to the desired concentration) and 10 μL (16 ng) of enzyme solution were added to each well, followed by 20 μL of assay buffer containing 0.1% casein substrate and 4 μM ATP.
After 60 min of incubation at 30 °C, the enzymatic reactions were stopped with 40 μL of KinaseGlo® reagent (Promega). The luminescence signal (relative light unit, RLU) was recorded after 10 min at 25 °C using Tecan Infinite M100. […] Two independent experiments were performed in duplicate and the corresponding residual activity of CK1δ was obtained. Data were analyzed using Excel and reported as the mean of the two experiments with standard deviation. For IC50 determination ten different inhibitor concentrations ranging from 100 to0.026 μM were used and each point was assessedin duplicate. IC50 values are the mean of three independent experiments and 95% confidence limits were also reported. Data were analyzed using GraphPad Prism software (version 8.0).

CK1δ [1] = target: CK1δ; set-up: method as in PMID 19825801; conditions: cited from earlier work
ALK kinase = target: ALK kinase; set-up: method as in PMID 19825801; conditions: cited from earlier work
CK1δ [2] = target: CK1δ; set-up: method as in PMID 21336281; conditions: cited from earlier work

| SMILES | remaining activity at 40 µM (CK1δ (aa 1-294)) [%] | pIC50 (CK1δ (aa 1-294)) | further results |
| --- | --- | --- | --- |
| Nc1ncnc2nccc(O)c12 [Compound 59] | 24.7 | 4.86 | – |
| CNC(=O)c1c(F)cccc1Nc1nc(Nc2cc3c(cc2OC)CCN3C(=O)CN(C)C)nc2[nH]ccc12 [GSK1838705A] | – | – | pKi (CK1δ [1]): 5.46; pIC50 (ALK kinase): […] |
| Nc1ncnc2sc3c(c12)CCCC3 [Compound 37] | 23.8 | 4.90 | – |
| Nc1n[nH]c2cc(Cl)ccc12 [Compound 38] | 24.4 | 4.69 | – |
| N#Cc1c(N)nsc1N1CCOCC1 [Compound 28] | 37.8 | 5.48 | – |
| O=C(Nc1n[nH]c2ccc(-c3cn(Cc4ccccc4)nn3)cc12)c1ccccc1 [CHEMBL1999931] | – | – | pKi (CK1δ [2]; multikinase inhibitor with 3-amino-indazole scaffold): 6.50 |
| Cc1c(C)n(-c2cccnc2)c2ncnc(N)c12 [Compound 52] | 28.3 | 4.87 | – |
| Nc1nsc(Nc2ccccc2)n1 [Compound 62] | 28.1 | 4.74 | – |
| CSc1c[nH]c2ncnc(NCCCO)c12 [CHEMBL2000114] | – | – | pKi (CK1δ [2]; same kinome scan from Abbott Labs): 6.00 |
| Nc1n[nH]c2cccc(F)c12 [Compound 63] | 35.4 | 4.60 | – |
